This is an account of results in US20050113253A1, “Fertilizer” (priority 2003, published 2005).

Molecules are shown by their SMILES. Bounds are passed on as bounds.

Data set [1] is described as follows: Solubility of prodiamine in N-methyl pyrrolidone liquid carrier. It counts as physicochemical. Particulars: N-methyl pyrrolidone as liquid carrier; heating and gentle mixing. The text has this: For example, when N-methyl pyrrolidone is used as the liquid carrier for prodiamine, concentrations of 50 wt. % or more can be easily achieved by heating and gentle mixing. For convenience, however, concentrations on the order of 10 to 50 wt. %, and especially about 30 to 40 wt. %, are appropriate.
A mixture of 37.6 wt. % Prodiamine Technical Grade Herbicide (94.8% active) obtained from SipCam Aro USA of Roswell, Ga., and 62.4 wt. % M-Pyrol (N-methyl pyrrolidone) solvent obtained from ISP Technologies, Inc., of Wayne, N.J., was heated to about 75° C. (about 165° F.) with mechanical stirring until the prodiamine completely dissolved. The composition so obtained was then allowed to cool to ambient and then sprayed onto a moving bed of particulate fertilizer composed of a mixture of different fertilizer ingredients having particle sizes ranging from 4.75 to 1.18 mm, a combined bulk density of 0.92 gms/cc and containing about 24% nitrogen, 5% phosphorous and 11% potassium, measured as units of total nitrogen (N), available phosphate (P2O5) and soluble potash (K2O).

For data set [2] the following is noted: also printed as 187° F.; cited from earlier work.

Take `CCCN(CCC)c1c([N+](=O)[O-])cc(C(F)(F)F)c(N)c1[N+](=O)[O-]` [prodiamine, 2,4-dinitro-N^3,N^3-di-n-propyl-6-(trfluoromethyl)-1,3-benzenediamine]: in data set [1], the “concentration achievable (dissolved) in N-methyl pyrrolidone” value is recorded as not below 50 wt. %.

`CN1CCCC1=O` [N-methyl pyrrolidone]: the flash point in data set [2] was approximately 86 °C.
